Laboratory results from US20100016434A1, “Inhibitors of Egln3 Activity for the Treatment of Neurodegenerative Disorders” (priority 2005, published 2010).
One block for each compound: values may come before it.

Experiments:
EGLN3 = target: T1, EGLN3 (Homo sapiens, UniProt Q9H6Z9); assay: EGLN3 hydroxylation assay: HIF1α-derived peptide, capture of 35S-labeled pVHL; assay type: biochemical; conditions: increasing amount of succinate; EGLN3 in vitro translate
T1 construct: HA; made in house; host or cells: in vitro translation in reticulocyte lysate

PC12 cells [1] = assay: Apoptosis after NGF withdrawal in differentiated PC12 cells (GFP-Histone nuclei scoring); assay type: cell-based, rat
Method: FIG. 5: (A) Anti-SM20/EGLN3 immunoblot analysis of PC12 cells treated as in FIG. 3A. SM-20 in vitro translate included in lane 1 as a control. (B and D) Representative fluorescent photomicrographs (B) and anti-HA immunoblot analysis (D) of PC12 cells transfected to produce GFP-Histone and the indicated HA-EGLN species. White arrows in […] indicate apoptotic nuclei. (C) Percent of GFP-positive nuclei with apoptotic changes after transfection with 0.5 or 1.0 μg of the indicated plasmids. (E and F) Representative fluorescent photomicrographs of PC12 cells transfected with the indicated siRNAs and a plasmid encoding GFP-Histone followed by treatment with NGF for […] (‘+NGF’), which was then withdrawn for 24 hours (‘−NGF’). White arrows indicate apoptotic nuclei, which were quantitated in (E) as percent of GFP-positive nuclei. (G and H) Representative fluorescent photomicrographs (F) of PC12 cells transfected to produce GFP-Histone and treated with NGF for 5 days (‘+NGF’), which was then withdrawn for 24 hours (‘−NGF’). Where indicated cells were exposed to 100 μM CoCl2 or 1% hypoxia during NGF withdrawal. White arrows indicate apoptotic nuclei, which were quantitated in (G) as % of GFP-positive nuclei.
(§1) (B) FACS profiles of PC12 cells stained with the ROS-sensitive dye CM-H2DCFDA after treatment with the indicated SDH inhibitors or the ROS-inducing agent Rotenone (Ro; 20 μM) in the presence or absence of the ROS scavenger ascorbic acid (AA; 100 μM). C=control. (C and D) Representive fluorescent photomicrographs of PC12 cells (C) transfected to produce GFP-Histone alone (GFP-His) or GFP-Histone and EGLN3 (EGLN3). The SDH inhibitors 3-NPA (300 t-IM), MA (300 I-LM), or TTFA (200 ˜M) were added where indicated. White arrows indicate apoptotic nuclei, which were quantitated in (D) as percent of GFP-positive nuclei. (E) Immunoblot analysis of PC12 cells treated with the indicated chemicals or vehicle (C). (F) Percent of GFP-positive PC12 nuclei undergoing apoptosis after transfection to produce GFP-Histone alone (GFP-His) or GFP-Histone and EGLN3 (EGLN3) in the presence or absence of SDH inhibitors. 100 μM AA was also present where indicated. (G) Percent of GFP-positive PC 12 nuclei undergoing apoptosis after transfection with the indicated siRNAs and a plasmid encoding GFP-Histone followed by treatment with NGF for 5 days (‘+NGF’), which was then withdrawn for 24 hours (‘−NGF’). […]
(§2) Undifferentiated PC12 cells were plated onto collagen-coated 6-well plates 1 day before transfection with LIPOFECTAMINE 2000 reagent (Invitrogen) according to the manufacturer's instructions. […] Nuclei that were condensed or fragmented were scored as apoptotic. Approximately 400 cells were scored for each set of conditions and all assays were performed in triplicate.

PC12 cells [2] = assay: ROS analysis by FACS with CM-H2DCFDA; assay type: cell-based, rat; conditions: 100 μM AA
Method: (B) FACS profiles of PC12 cells stained with the ROS-sensitive dye CM-H2DCFDA after treatment with the indicated SDH inhibitors or the ROS-inducing agent Rotenone (Ro; 20 μM) in the presence or absence of the ROS scavenger ascorbic acid (AA; 100 μM). C=control. (C and D) Representive fluorescent photomicrographs of PC12 cells (C) transfected to produce GFP-Histone alone (GFP-His) or GFP-Histone and EGLN3 (EGLN3). The SDH inhibitors 3-NPA (300 t-IM), MA (300 I-LM), or TTFA (200 ˜M) were added where indicated. White arrows indicate apoptotic nuclei, which were quantitated in (D) as percent of GFP-positive nuclei. (E) Immunoblot analysis of PC12 cells treated with the indicated chemicals or vehicle (C). (F) Percent of GFP-positive PC12 nuclei undergoing apoptosis after transfection to produce GFP-Histone alone (GFP-His) or GFP-Histone and EGLN3 (EGLN3) in the presence or absence of SDH inhibitors. 100 μM AA was also present where indicated. (G) Percent of GFP-positive PC 12 nuclei undergoing apoptosis after transfection with the indicated siRNAs and a plasmid encoding GFP-Histone followed by treatment with NGF for 5 days (‘+NGF’), which was then withdrawn for 24 hours (‘−NGF’).
PC12 cells were incubated for 1 hr with 5 μM CM-H2DCFDA (Molecular Probes), harvested, resuspended at 10^6 cells/ml in PBS supplemented with 7% FBS, and analyzed by FACS.

PC12 cells [3] = assay: EGLN3-induced apoptosis in transfected undifferentiated PC12 cells (GFP-Histone nuclei scoring); assay type: cell-based, rat; conditions: coadministration of 100 μM AA with SDH inhibitors
Method: as §1, with “indicated.” for “indicated. (G) Percent of GFP-positive PC 12 nuclei undergoing apoptosis after transfection with the indicated siRNAs and a plasmid encoding GFP-Histone followed by treatment with NGF for 5 days (‘+NGF’), which was then withdrawn for 24 hours (‘−NGF’).”
as §2, with “triplicate. […]” for “triplicate.”

JunB = assay: Immunoblot analysis of JunB in 786-O renal carcinoma subclones; assay type: cell-based, human; conditions: 786-O cells treated with PKC inhibitor
Method: FIG. 2: (A) Immunoblot analysis of 786-O VHL(−/−) renal carcinoma cells retrovirally infected to produce the indicated short hairpin RNAs (shRNA) or wild-type pVHL (VHL). (B) Immunoblot analyis of RC3 cells and WT7 cells; where indicated, WT7 cells were treated with DFO or infected to produce HIF2α P405A; P531A or with empty retrovirus. (C) Immunoblot analysis of indicated 786-O subclones grown in presence or absence of DFO; (*)=non-specific band. (D) Immunoblot analysis of A498 and 786-O cells transfected to produce the indicated HA-pVHL variants or with empty vector. Arrow indicates a slowly migrating form of aPKC. (E) In vitro aPKC activity. Anti-aPKC immunoprecipitates of the indicated cell lines under antibody excess conditions were incubated with a peptidic aPKC substrate in the presence of ^32P-γ-ATP. Shown are incorporated ^32P values. (F) Immunoblot analysis of 786-O cells treated with the PKC inhibitor GF109230X.
Twenty μg of nuclear extract per lane, prepared using a NE-PER extraction kit (Pierce Biotechnology, Inc., Rockford Ill.) and measured by the Bradford assay, was resolved on 10% or 12% SDS-PAGE gels and transferred to nitrocellulose membrane (Bio-Rad Laboratories, Hercules Calif.) to detect endogenous JunB and HIF2α. […] Bound protein was detected with a Horseradish Peroxidase (HRP)-conjugated secondary antibodies and an enhanced chemiluminesence kit (Pierce).

HIF2α = assay: Immunoblot analysis of HIF2α in 786-O cells; assay type: cell-based, human; conditions: 786-O cells treated with PKC inhibitor
Text: (A and B) Immunoblot analysis of 786-O cells treated with the PKC inhibitor GF109230X.
Twenty μg of nuclear extract per lane, prepared using a NE-PER extraction kit (Pierce Biotechnology, Inc., Rockford Ill.) and measured by the Bradford assay, was resolved on 10% or 12% SDS-PAGE gels and transferred to nitrocellulose membrane (Bio-Rad Laboratories, Hercules Calif.) to detect endogenous JunB and HIF2α. After blocking in TBS with 5% nonfat milk, the membranes were probed with anti-JunB monoclonal antibody (C-11; Santa Cruz Biotechnology, Inc., Santa Cruz Calif.) or anti-HIF2α rabbit polyclonal antibody (NB100-122; Novus Biologicals, Inc., Littleton Colo.). Bound protein was detected with a Horseradish Peroxidase (HRP)-conjugated secondary antibodies and an enhanced chemiluminesence kit (Pierce).

[4] = SDH inhibitors 300 μM, NGF withdrawn for 24 hours

T1 sequence (Q9H6Z9 whole entry): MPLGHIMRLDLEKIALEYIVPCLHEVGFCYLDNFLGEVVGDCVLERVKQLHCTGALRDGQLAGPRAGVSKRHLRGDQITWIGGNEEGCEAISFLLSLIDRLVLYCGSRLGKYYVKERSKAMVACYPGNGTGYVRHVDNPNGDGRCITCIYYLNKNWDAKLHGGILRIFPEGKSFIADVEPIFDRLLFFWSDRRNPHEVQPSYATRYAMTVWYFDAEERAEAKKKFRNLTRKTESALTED

EGLN3 hydroxylase activity (EGLN3): diminished
Compound: O=C(O)CCC(=O)O [succinate]

Compound: O=C(O)CCC(=O)C(=O)O [2-OG, 2-oxoglutarate]
Apoptosis after NGF withdrawal in SDH D siRNA-transfected cells (PC12 cells [1]; 0.5 mM 2-oxoglutarate added to the media 24 hours before NGF withdrawal): partially restored

Compound: O=C1O[C@H]([C@@H](O)CO)C(O)=C1O [ascorbic acid]
ROS induction by SDH inhibitors (PC12 cells [2]): blocking ROS induction
Effect on the action of the SDH inhibitors on EGLN3-induced apoptosis (PC12 cells [3]): failed to mitigate

Compound: O=C(O)CC[N+](=O)[O-] [3-NPA, 3-nitroproprionic acid]
Apoptosis after NGF withdrawal (PC12 cells [1]; [4]): diminished apoptosis

Compound: [Cl][Co][Cl] [cobalt chloride]
Apoptosis after NGF withdrawal (PC12 cells [1]; 100 μM CoCl2 during NGF withdrawal, 24 hours): decreased

Compound: O=C(O)CC(=O)O [MA, malonic acid]
Apoptosis after NGF withdrawal (PC12 cells [1]; [4]): diminished apoptosis

Compound: CN(C)CCCn1cc(C2=C(c3c[nH]c4ccccc34)C(=O)NC2=O)c2ccccc21 [GF109203X]
JunB levels (JunB): downregulated
HIF2α levels (HIF2α): does not affect
